Entries after “also recorded” stand apart in the source; their conditions may differ.
Columns and labels:
[1] = target: T1, RBM39 G268V-3xFLAG with CUL4 complex (Homo sapiens, UniProt Q14498+Q66K64, G268V); experiment: Co-immunoprecipitation of RBM39 G268V-3xFLAG from treated cells; assay type: cell-based; conditions: in the presence of indisulam
T1 construct: lysate derived from parental cells, RBM39-3xFLAG cells, or RBM39 G268V-3xFLAG cells; endogenous in cells; host or cells: HCT-116 RBM39 G268V-3xFLAG cells (treated cells in A91; lysates in A95)
Description: (§1) Anti-Flag M2 antibody (Sigma-Aldrich) was coupled to Dynabeads M-270 epoxy beads (Life Technologies) at the ratio of 10 μg of antibody/mg beads. […] Frozen cells were then pulverized in the a cryomill (Retsch) with one 25 mm steel ball and five cycles of three min at 25 Hz with intermittent cooling in liquid nitrogen. […] The lysates were centrifuged at 8000 g for 5 min at 4° C. 12 mg of conjugated Anti-Flag magnetic beads were mixed with clarified lysates for 5 min at 4° C. on a rotating platform, followed by three washes with IP buffer. Bound proteins were eluted with 1 mg/ml 3xFLAG peptide, followed by SDS-PAGE on a 10% Bis Tris gel. After brief electrophoresis, bands containing all the proteins were cut with clean blades. For western blotting of co-immunoprecipitated proteins, anti-DDA1 (ProteinTech, 14995-1-AP, 1:1000), anti-DDB1 (Abcam, ab109027, 1;10000), anti-CUL4A (Cell Signaling, 2699, 1:1000), anti-CUL4B (ProteinTech, 12916-1-AP, 1:1000) were used.

RBM39 G268V-3xFLAG = target: T2, RBM39 G268V-3xFLAG (Homo sapiens, UniProt Q66K64); experiment: In vivo polyubiquitination of RBM39 G268V; assay type: cell-based; conditions: following indisulam treatment
T2 construct: expressed in transfected cells; host or cells: 293T
Description: cDNAs encoding RBM39-3xFLAG, RBM39 G268V-3xFLAG, and DCAF15-V5 were cloned into the pCDNA3.1+vector. pCMV 8XHis Ub was a gift from William Kaelin (Dana Farber Cancer Institute). 0.4 million 293T cells were seeded per well on 6-well plates and allowed to attach overnight. 250 ng of pCMV 8XHis Ub, 500 ng of pCDNA3-DCAF15-V5, 10 ng of either pCDNA3-RBM39-3xFLAG or pCDNA3-RBM39 G268V-3xFLAG were transfected. […] Cells were lifted from the plates by pipetting, pelleted by centrifugation, and washed once with PBS. Purification of His-Ub tagged proteins was performed as described (5).

RBM39-3xFLAG complex = target: T3, RBM39-3xFLAG complex (Homo sapiens, UniProt Q14498+Q66K64); experiment: Immunoprecipitation of RBM39 complex +/− indisulam, LC-MS/MS (Table 1); conditions: H1155 RBM39-3xFLAG cells; 10 μM indisulam 2 hours
T3 construct: endogenous in cells; host or cells: H1155 RBM39-3xFLAG knock-in cells
Description: as §1
Excised gel bands were cut into approximately 1 mm^3 pieces. Gel pieces were then subjected to a modified in-gel trypsin digestion procedure (46). Gel pieces were washed and dehydrated with acetonitrile for 10 min. followed by removal of acetonitrile. Pieces were then completely dried in a speed-vac. […] Peptides were detected, isolated, and fragmented to produce a tandem mass spectrum of specific fragment ions for each peptide. […]

[2] = test system: RBM39 with indisulam-resistant mutations; experiment: RBM39 degradation in resistant cells (western blotting); assay type: cell-based, human; conditions: resistant cells harboring indisulam-resistant mutations
Description: Proteins were resolved on SDS-PAGE and transferred to 0.5 μm nitrocellulose membranes. Membranes were blocked in 5% milk TBST for 30 min, and then anti-RBM39 antibodies (HPA001591, Sigma-Aldrich) were added in 5% milk (1:5000) and incubated on a shaker overnight at 4° C. After three 5 min washes with TBST, membranes were incubated with HRP-conjugated goat anti-rabbit secondary antibody (Bio-Rad) for 2 hr at room temperature. After three 5 min washes with TBST, membranes were developed with ECL (enhanced chemiluminescence) substrates.

[3] = test system: tumors derived from parental HCT-116 cells; experiment: Mouse xenograft model, parental HCT-116; assay type: in vivo, Nod-Scid IL-2Rγ KO mice
Description: All animal work was approved by the Institutional Animal Care and Use Committee at UTSW. UTSW is accredited by the Association for Assessment and Accreditation of Laboratory Animal Care International (AAALAC). Animals were obtained from the UTSW Breeding Core Facility. Nod-Scid IL-2Rγ KO mice were implanted with 5 million parental HCT-116 cells or HCT-116 cells expressing RBM39 G268V in a volume of 0.1 ml in the left flank. Tumor volumes were measured every 2-4 days with calipers. Volume is calculated as (L*W^2)*3.14)/6.

## NS(=O)(=O)c1ccc(S(=O)(=O)Nc2cccc3c(Cl)c[nH]c23)cc1 [Indisulam, indisulam]
[1]
  recruitment of RBM39 G268V to the CUL4 complex: not recruited
RBM39 G268V-3xFLAG
  RBM39 G268V ubiquitination: not ubiquitinated
RBM39-3xFLAG complex
  recruitment of RBM39 to CUL4, DDB1, DDA1, DCAF15 CRL complex (shotgun mass spectrometry): induces recruitment of RBM39
[2]
  RBM39 protein levels: no effect
[3]; 25 mg/kg indisulam intravenous once a day for eight days
  tumor response: complete regression; also recorded: regress
[3]; parental HCT-116 xenograft, 25 mg/kg once a day for eight days
  Average maximal weight loss from start of therapy to 1 day post final dose: 5.2%

— patent US20180140578A1, “METHODS AND COMPOSITIONS FOR THE DIAGNOSIS AND SELECTIVE TREATMENT OF CANCER” (Board of Regents of the University of Texas System, priority 2016, published 2018)
